Structures can show the parent of a compound that is named as a salt.
Tests used:
mouse P2Y10 = biological target: T1, mouse P2Y10 (Mus musculus, UniProt Q8BFU7); test: TGFα shedding assay, agonistic activity on P2Y10; type: cell-based; parameters: key: an activity that is 100 folds that of control compound 1 as +++++; an activity that is 10 folds that of control compound 1 as ++++; the activity of the control compound 1 (LPS18:1) as +++; an activity that is 1/10 as ++; an activity that is 1/100 as +; an activity below that as −; conditions: HEK293 cells transfected with mouse P2Y10 and AP labeled TGFα; activity relative to control compound 1 (LPS18:1) = +++
T1 construct: expressed in transfected cells; host or cells: HEK293
T1 sequence (Q8BFU7 whole entry): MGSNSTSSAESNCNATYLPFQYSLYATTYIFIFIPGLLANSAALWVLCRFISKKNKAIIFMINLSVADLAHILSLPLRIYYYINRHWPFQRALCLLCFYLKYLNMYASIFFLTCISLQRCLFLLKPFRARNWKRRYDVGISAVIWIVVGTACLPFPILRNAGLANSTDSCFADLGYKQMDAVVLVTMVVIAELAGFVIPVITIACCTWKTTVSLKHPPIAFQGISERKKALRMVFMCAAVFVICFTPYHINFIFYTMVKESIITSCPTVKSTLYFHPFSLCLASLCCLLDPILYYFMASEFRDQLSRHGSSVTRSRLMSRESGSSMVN
Protocol: (§1) [Test Example 1]Assay of Agonistic Activity by TGFα Shedding Assay
(§2) HEK293 cells were suspended in the Dulbecco's modified Eagle's medium (DMEM) containing 10% fetal bovine serum (FCS) to exist in an amount of 2.0×10^5 cells/mL, and they were seeded in 60 mm dishes at 4 mL per dish. Transfection of different expression vectors was performed using LipofectAMINE 2000 (Invitrogen) after 24 hours of culture under the presence of 5% CO2. For each 60 mm dish, 1 μg of AP labeled TGFα plasmid vectors were used, and 1 μg of pCAGGS plasmid vectors of mouse GPR34, P2Y10 or GPR174 were used. The plasmid vectors were prepared by methods disclosed in Patent Documents 2 and 5. Note that the AP labeled TGFα is a protein comprising a membrane-bound pro-TGFα whose N terminal end is fused with human placental alkaline phosphatase, and the plasmid vector of the AP labeled TGFα may be produced based on the teaching of Tokumaru et al., J Cell Biol 151, 209-220 (2000). After 24 hours of transfection, the cells were peeled off using trypsin/EDTA, and they were re-suspended in a culture medium to form an amount of 2.0×10^4 cells/well to be seeded to a 96-well plate. Hanks' Balanced Salt Solution (HBSS, containing 5 mM HEPES) was used for the re-suspended solution when stimulating with the compound. After it was left still for 30 min., subject compounds of various concentrations were added and the solutions were left still for another 1 hour under the presence of 5% CO2. The 96-well plate was subjected to centrifugation (190×g, 3 min.), then 80 μl of supernatant was transferred to a different 96-well plate. A reaction buffer (40 mM Tris-HCl (pH 9.5)) containing 10 mM p-nitrophenyl phosphate (p-NPP) was added in an amount of 80 μL to the supernatant and cells. The OD405 was measured with a micro plate reader (background), then after heating at 37° C. for an hour, OD405 was re-measured. The AP activity for each well was obtained by subtracting the background from the second absorbance and plugging the difference into the following formula.
(§3) In addition, the value obtained by subtracting the AP activity (%) of the non-stimulated group was used in the vertical axis to create a graph. The graphs of the test results for Example 3 (lysoPS sn-1-deoxy sn3 C3-ph-o-OBn-m-Oph) and Example 31 (lysoPS sn-1-OMe sn3 C3-ph-o-OBn-m-Oph) are shown in FIG. 1.
(§4) The obtained activity is shown by plotting the compound concentration and AP activity (%), then representing the activity of the control compound 1 (LPS18:1) as +++, an activity that is 10 folds that of control compound 1 as ++++, an activity that is 100 folds that of control compound 1 as +++++, an activity that is 1/10 as ++, and an activity that is 1/100 as +, and an activity below that as −.

mouse GPR34 = biological target: T2, mouse GPR34 (Mus musculus, UniProt Q9R1K6); test: TGFα shedding assay, agonistic activity on GPR34; type: cell-based; parameters: key to GPR34/LPS2 agonistic activity, TGFα shedding assay: an activity that is 100 folds that of control compound 1 as +++++; an activity that is 10 folds that of control compound 1 as ++++; the activity of the control compound 1 (LPS18:1) as +++; an activity that is 1/10 as ++; an activity that is 1/100 as +; an activity below that as −; conditions: for GPR34/LPS2 agonistic activity, TGFα shedding assay: HEK293 cells transfected with mouse GPR34 and AP labeled TGFα, activity relative to control compound 1 (LPS18:1) = +++
T2 construct: expressed in transfected cells; host or cells: HEK293
T2 sequence (Q9R1K6 whole entry): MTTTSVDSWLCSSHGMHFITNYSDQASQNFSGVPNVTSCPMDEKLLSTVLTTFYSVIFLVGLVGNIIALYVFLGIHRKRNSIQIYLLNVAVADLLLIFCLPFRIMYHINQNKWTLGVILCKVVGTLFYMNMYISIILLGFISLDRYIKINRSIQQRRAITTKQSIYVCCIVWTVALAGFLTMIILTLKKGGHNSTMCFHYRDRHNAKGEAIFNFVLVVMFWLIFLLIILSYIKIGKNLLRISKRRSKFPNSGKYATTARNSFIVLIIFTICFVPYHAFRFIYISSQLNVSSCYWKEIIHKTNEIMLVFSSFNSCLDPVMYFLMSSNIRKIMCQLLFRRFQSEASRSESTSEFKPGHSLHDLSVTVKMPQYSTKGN
Protocol: as §1, §2, §3, §4

mouse GPR174 = biological target: T3, mouse GPR174 (Mus musculus, UniProt Q3U507); test: TGFα shedding assay, agonistic activity on GPR174; type: cell-based; parameters: key: an activity that is 100 folds that of control compound 1 as +++++; an activity that is 10 folds that of control compound 1 as ++++; the activity of the control compound 1 (LPS18:1) as +++; an activity that is 1/10 as ++; an activity that is 1/100 as +; an activity below that as −; conditions: HEK293 cells transfected with mouse GPR174 and AP labeled TGFα; activity relative to control compound 1 (LPS18:1) = +++
T3 construct: expressed in transfected cells; host or cells: HEK293
T3 sequence (Q3U507 whole entry): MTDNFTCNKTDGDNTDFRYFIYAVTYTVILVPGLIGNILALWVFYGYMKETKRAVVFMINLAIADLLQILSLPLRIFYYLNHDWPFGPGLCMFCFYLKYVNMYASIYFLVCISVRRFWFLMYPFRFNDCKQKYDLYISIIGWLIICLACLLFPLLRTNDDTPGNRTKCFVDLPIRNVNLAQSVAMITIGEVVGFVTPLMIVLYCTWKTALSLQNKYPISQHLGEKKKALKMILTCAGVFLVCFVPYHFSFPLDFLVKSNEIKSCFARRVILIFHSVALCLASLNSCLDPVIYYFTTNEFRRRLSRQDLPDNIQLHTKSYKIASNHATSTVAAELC
Protocol: as §1, §2, §3, §4

| melting point [°C] | P2Y10/LPS2 agonistic activity, TGFα shedding assay (mouse P2Y10) | GPR34/LPS2 agonistic activity, TGFα shedding assay (mouse GPR34) | GPR174/LPS3 agonistic activity, TGFα shedding assay (mouse GPR174) | Structure (SMILES) | receptor selectivity of agonist activity among GPR34, P2Y10, GPR174 (graphs of FIG. 1) (mouse GPR34; TGFα shedding assay, HEK293 cells, AP activity (%) vs concentration) |
| --- | --- | --- | --- | --- | --- |
| 143.5 to 144.5 |  |  |  | C[C@H](COC(=O)CCc1ccccc1OCc1cccc(Oc2ccccc2)c1)OP(=O)(O)OC[C@H](N)C(=O)O (as salt: TFA) [Example 3, (2S)-2-amino-3-[hydroxyl-((1R)-1-methyl-2-{3-[2-(3-phenoxy-benzyloxy)-phenyl]-propionyloxy}-ethoxy)-phosphoryloxy]-propionic acid] |  |
|  | ++ | − | − | CCCCCCCCCCCOc1ccccc1CCC(=O)OC[C@H]1OCC=C[C@@H]1OP(=O)(O)OC[C@H](N)C(=O)O [Example 19, (2S)-2-amino-3-(hydroxyl-{(2R,3S)-2-[3-(2-undecyloxy-phenyl)-propionyloxymethyl]-3,6-dihydro-2H-pyran-3-yloxy}-phosphoryloxy)-propionic acid] |  |
|  | − | +++ | − | N[C@@H](COP(=O)(O)O[C@H]1CCCO[C@@H]1COC(=O)CCc1ccccc1OCc1cccc(Oc2ccccc2)c1)C(=O)O [Example 22, (2S)-2-amino-3-[hydroxyl-((2R,3S)-2-{3-[2-(3-phenoxy-benzyloxy)-phenyl]-propionyloxymethyl}-tetrahydropyran-3-yloxy)-phosphoryloxy]-propionic acid] |  |
|  | ++ | ++ | − | CCCCCCCC/C=C\CCCCCCCC(=O)OC[C@H]1OCC=C[C@@H]1OP(=O)(O)OC[C@H](N)C(=O)O [Example 23, (9Z)-Octadeca-9-enoic acid (2R,3S)-3-[((2S)-2-amino-2-carboxy-ethoxy)-hydroxy-phosphoryloxy]-3,6-dihydro-2H-pyran-2-ylmethyl ester] |  |
|  | ++~+++ | +++ | − | N[C@@H](COP(=O)(O)O[C@H]1C=CCO[C@@H]1COC(=O)CCc1ccccc1OCc1cccc(Oc2ccccc2)c1)C(=O)O [Example 24, (2S)-2-amino-3-[hydroxy-((2R,3S)-2-{3-[2-(3-phenoxy-benzyloxy)-phenyl]-propionyloxymethyl}-3,6-dihydro-2H-pyran-3-yloxy)-phosphoryloxy]-propionic acid] |  |
|  | ++ | +++~++++ | − | N[C@@H](COP(=O)(O)O[C@@H]1C=CCO[C@@H]1COC(=O)CCc1ccccc1OCc1cccc(Oc2ccccc2)c1)C(=O)O [Example 26, (2S)-2-amino-3-[hydroxyl-((2R,3R)-2-{3-[2-(3-phenoxybenzyloxy)-phenyl]-propionyloxymethyl}-3,6-dihydro-2H-pyran-3-yloxy)-phosphoryloxy]-propionic acid] |  |

Further lines, the compound ahead of its results:

| Structure (SMILES) | melting point [°C] | P2Y10/LPS2 agonistic activity, TGFα shedding assay (mouse P2Y10) | GPR34/LPS2 agonistic activity, TGFα shedding assay (mouse GPR34) | GPR174/LPS3 agonistic activity, TGFα shedding assay (mouse GPR174) | receptor selectivity of agonist activity among GPR34, P2Y10, GPR174 (graphs of FIG. 1) (mouse GPR34; TGFα shedding assay, HEK293 cells, AP activity (%) vs concentration) |
| --- | --- | --- | --- | --- | --- |
| CCCCCCCC/C=C\CCCCCCCC(=O)OC[C@H](C)OP(=O)(O)OC[C@H](N)C(=O)O (as salt: TFA) [Example 2, (9Z)-Octadeca-9-enoic acid (2S)-2-[((2S)-2-amino-2-carboxy-ethoxy)-hydroxy-phosphoryloxy]-propyl ester] | 133.5 to 134.5 |  |  |  |  |
| CCCCCCCC/C=C\CCCCCCCC(=O)OC[C@@H](COC)OP(=O)(O)OC[C@H](N)C(=O)O (as salt: TFA) [Example 4, (9Z)-Octadeca-9-enoic acid (2R)-2-[((2S)-2-amino-2-carboxy-ethoxy)-hydroxy-phosphoryloxy]-3-methoxy-propyl ester] | 192.5 to 196 |  |  |  |  |
| CCCCCCCC/C=C\CCCCCCCC(=O)OC[C@H](COC)OP(=O)(O)OC[C@H](N)C(=O)O (as salt: TFA) [Example 5, (9Z)-Octadeca-9-enoic acid (2S)-2-[((2S)-2-amino-2-carboxy-ethoxy)-hydroxy-phosphoryloxy]-3-methoxy-propyl ester] | 149 to 150.5 |  |  |  |  |
| CCCCCCCC/C=C\CCCCCCCC(=O)OC[C@@H](COCC)OP(=O)(O)OC[C@H](N)C(=O)O (as salt: TFA) [Example 6, (9Z)-Octadeca-9-enoic acid (2R)-2-[((2S)-2-amino-2-carboxy-ethoxy)-hydroxy-phosphoryloxy]-3-ethoxypropyl ester] | 130.2 to 131 |  |  |  |  |
| N[C@@H](COP(=O)(O)O[C@@H]1CCCO[C@@H]1COC(=O)CCc1ccccc1OCc1cccc(Oc2ccccc2)c1)C(=O)O [Example 17] |  | − | ++++ | − |  |
| N[C@@H](COP(=O)(O)OC[C@H]1OCCC[C@H]1OC(=O)CCc1ccccc1OCc1cccc(Oc2ccccc2)c1)C(=O)O [Example 18] |  | − | ++++~+++++ | − |  |
| CCCCCCCC/C=C\CCCCCCCC(=O)OC[C@H]1OCCC[C@@H]1OP(=O)(O)OC[C@H](N)C(=O)O [Example 20, (9Z)-Octadeca-9-enoic acid (2R,3S)-3-[((2S)-2-amino-2-carboxy-ethoxy)-hydroxy-phosphoryloxy]-tetrahydro-pyran-2-ylmethyl ester] |  | + | +++~++++ | − |  |
| CCCCCCCCCCCOc1ccccc1CCC(=O)OC[C@H]1OCCC[C@@H]1OP(=O)(O)OC[C@H](N)C(=O)O [Example 21, (2S)-2-amino-3-(hydroxyl-{(2R,3S)-2-[3-(2-undecyloxy-phenyl)-propionyloxymethyl]-tetrahydro-pyran-3-yloxy}-phosphoryloxy)-propionic acid] |  | ++ | −~++ | − |  |
| CCCCCCCCCCCOc1ccccc1CCC(=O)OC[C@H]1OCC=C[C@H]1OP(=O)(O)OC[C@H](N)C(=O)O [Example 25, (2S)-2-amino-3-(hydroxy-{(2R,3R)-2-[3-(2-undecyloxy-phenyl)-propionyloxymethyl]-3,6-dihydro-2H-pyran-3-yloxy}-phosphoryloxy)-propionic acid] |  | +++~++++ | +~++ | − |  |
| COC[C@H](COC(=O)CCc1ccccc1OCc1cccc(Oc2ccccc2)c1)OP(=O)(O)OC[C@H](N)C(=O)O [Example 31, (2S)-2-amino-3-[hydroxy-((1R)-1-methoxymethyl-2-{3-[2-(3-phenoxy-benzyloxy)-phenyl]-propionyloxy}-ethoxy)-phosphoryloxy]-propionic acid] |  | +~++ | +++++ | − | agonists having selectivity against GPR34 |
